# Measured values from ChEMBL document CHEMBL2429790, “Identification of 2-amino-5-aryl-pyrazines as inhibitors of human lactate dehydrogenase” (Bioorg Med Chem Lett, 2013).
# Tests used:
# [1] = biological target: T1, L-lactate dehydrogenase A chain (Homo sapiens, UniProt P00338); assay: Binding affinity to human recombinant carboxy-terminal his-tagged LDHA (1 to 331) expressed in Escherichia coli by surface plasmon resonance analysis in presence of NADH
# [2] = biological target: T1, L-lactate dehydrogenase A chain; assay: Inhibition of human recombinant carboxy-terminal his-tagged LDHA (1 to 331) expressed in Escherichia coli using pyruvate as substrate assessed as disappearance of NADH after 10 mins by fluorescence assay
# [3] = biological target: L-lactate dehydrogenase B chain (Homo sapiens, UniProt P07195)
# [4] = Cytotoxicity against human MCF7-neo/Her2 cells assessed as cell viability at 50 uM by Sytox Green/Hoescht 33342 staining assay; assay type: cell-based
# [5] = Oral bioavailability in Sprague-Dawley rat at 1.5 mg/kg; assay type: ADME, organism-based; details: in vivo
# [6] = Half life in Sprague-Dawley rat at 1.5 mg/kg, po and 0.5 mg/kg, iv; assay type: ADME, organism-based; details: in vivo
# [7] = AUC (infinity) in Sprague-Dawley rat at 1.5 mg/kg, po; assay type: ADME, organism-based; parameters: time infinity, dose 1.5 mg/kg, route oral; details: plasma
# [8] = Cmax in Sprague-Dawley rat at 0.5 mg/kg, iv; assay type: ADME, organism-based; parameters: dose 0.5 mg/kg, route intravenous; details: in vivo
# [9] = Volume of distribution in Sprague-Dawley rat at 1.5 mg/kg, po and 0.5 mg/kg, iv; assay type: ADME, organism-based; details: in vivo
# [10] = Plasma clearance in Sprague-Dawley rat at 1.5 mg/kg, po and 0.5 mg/kg, iv; assay type: ADME, organism-based
# Cytochrome P450 2C19 = Cytochrome P450 2C19 (Homo sapiens, UniProt P33261); assay: Inhibition of CYP2C19 (unknown origin) up to 10 uM; assay type: ADME
# Cytochrome P450 1A2 = biological target: T2, Cytochrome P450 1A2 (Homo sapiens, UniProt P05177); assay: Inhibition of CYP1A2 (unknown origin) up to 10 uM; assay type: ADME
# T2 sequence (P05177 whole entry): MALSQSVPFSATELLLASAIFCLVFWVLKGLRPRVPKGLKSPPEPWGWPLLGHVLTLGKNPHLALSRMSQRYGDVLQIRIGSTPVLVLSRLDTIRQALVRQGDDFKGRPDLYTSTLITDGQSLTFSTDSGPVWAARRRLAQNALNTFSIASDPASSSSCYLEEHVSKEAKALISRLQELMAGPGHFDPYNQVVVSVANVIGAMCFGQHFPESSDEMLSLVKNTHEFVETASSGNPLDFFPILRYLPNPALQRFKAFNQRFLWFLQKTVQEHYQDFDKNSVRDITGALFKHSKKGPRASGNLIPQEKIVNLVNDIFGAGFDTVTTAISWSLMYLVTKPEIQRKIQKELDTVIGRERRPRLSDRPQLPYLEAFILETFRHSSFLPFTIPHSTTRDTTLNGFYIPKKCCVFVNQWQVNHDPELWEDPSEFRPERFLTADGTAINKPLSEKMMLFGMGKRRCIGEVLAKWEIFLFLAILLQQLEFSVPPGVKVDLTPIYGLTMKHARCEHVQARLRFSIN
# Cytochrome P450 2D6 = Cytochrome P450 2D6 (Homo sapiens, UniProt P10635); assay: Inhibition of CYP2D6 (unknown origin) up to 10 uM; assay type: ADME
# Cytochrome P450 2C9 = Cytochrome P450 2C9 (Homo sapiens, UniProt P11712); assay: Inhibition of CYP2C9 (unknown origin) up to 10 uM; assay type: ADME
# [11] = Aqueous kinetic solubility of the compound at pH 7.4; assay type: physicochemical; details: read-out: Kinetic_solubility
# Cytochrome P450 3A4 = Cytochrome P450 3A4 (Homo sapiens, UniProt P08684); assay: Inhibition of CYP3A4 (unknown origin) up to 10 uM; assay type: ADME
# [12] = Permeability across basolateral to apical side in MDCK cells; assay type: ADME, cell-based, Canis lupus familiaris; details: dog, read-out: permeability
# [13] = Plasma protein binding in rat at 5 uM after 4 hrs by equilibrium dialysis method; assay type: ADME, cell-free; details: read-out: PPB (converted)
# [14] = Permeability across apical to basolateral side in MDCK cells; assay type: ADME, cell-based, Canis lupus familiaris; details: dog, read-out: permeability
# [15] = Plasma protein binding in human at 5 uM after 4 hrs by equilibrium dialysis method; assay type: ADME, cell-free; details: read-out: PPB
# [16] = biological target: T1, L-lactate dehydrogenase A chain; assay: Binding affinity to human recombinant carboxy-terminal his-tagged LDHA (1 to 331) expressed in Escherichia coli by surface plasmon resonance analysis in absence of NADH
# Chain of L-lactate dehydrogenase B chain (P07195 whole entry): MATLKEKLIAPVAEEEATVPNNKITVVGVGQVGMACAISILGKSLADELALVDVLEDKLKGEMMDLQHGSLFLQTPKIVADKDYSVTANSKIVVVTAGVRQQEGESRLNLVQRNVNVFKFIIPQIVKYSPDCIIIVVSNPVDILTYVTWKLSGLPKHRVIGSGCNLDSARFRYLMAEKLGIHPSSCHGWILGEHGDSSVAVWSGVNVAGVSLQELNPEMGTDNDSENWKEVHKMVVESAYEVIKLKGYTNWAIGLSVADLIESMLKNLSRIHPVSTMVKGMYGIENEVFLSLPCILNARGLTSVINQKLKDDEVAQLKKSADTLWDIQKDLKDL
# Chain of Cytochrome P450 2C9 (P11712 whole entry): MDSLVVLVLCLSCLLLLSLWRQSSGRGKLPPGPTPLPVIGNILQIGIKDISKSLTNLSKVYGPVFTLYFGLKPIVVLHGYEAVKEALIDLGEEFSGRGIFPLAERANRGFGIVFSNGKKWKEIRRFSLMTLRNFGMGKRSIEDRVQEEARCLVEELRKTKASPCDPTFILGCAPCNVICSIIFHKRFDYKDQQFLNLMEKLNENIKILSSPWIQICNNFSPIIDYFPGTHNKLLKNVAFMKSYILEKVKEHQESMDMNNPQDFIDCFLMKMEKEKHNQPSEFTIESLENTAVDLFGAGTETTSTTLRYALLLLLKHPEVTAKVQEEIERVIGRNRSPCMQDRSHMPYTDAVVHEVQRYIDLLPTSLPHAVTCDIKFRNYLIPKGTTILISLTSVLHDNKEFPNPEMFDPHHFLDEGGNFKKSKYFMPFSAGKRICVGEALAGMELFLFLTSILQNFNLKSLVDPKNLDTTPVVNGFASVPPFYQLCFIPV
# Chain of Cytochrome P450 3A4 (P08684 whole entry): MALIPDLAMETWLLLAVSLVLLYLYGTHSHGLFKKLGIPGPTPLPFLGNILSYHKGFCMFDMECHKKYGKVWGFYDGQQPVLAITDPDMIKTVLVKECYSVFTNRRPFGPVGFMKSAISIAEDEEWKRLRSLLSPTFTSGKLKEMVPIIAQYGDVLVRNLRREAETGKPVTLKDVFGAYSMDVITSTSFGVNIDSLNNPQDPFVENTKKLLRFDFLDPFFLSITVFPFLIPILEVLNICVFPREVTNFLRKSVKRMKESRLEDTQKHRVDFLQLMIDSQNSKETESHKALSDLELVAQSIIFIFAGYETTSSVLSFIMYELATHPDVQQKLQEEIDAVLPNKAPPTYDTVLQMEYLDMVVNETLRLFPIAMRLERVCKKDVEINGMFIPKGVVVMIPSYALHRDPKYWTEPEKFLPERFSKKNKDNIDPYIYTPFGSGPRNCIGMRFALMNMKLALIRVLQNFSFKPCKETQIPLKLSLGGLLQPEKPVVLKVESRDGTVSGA
# Chain of Cytochrome P450 2C19 (P33261 whole entry): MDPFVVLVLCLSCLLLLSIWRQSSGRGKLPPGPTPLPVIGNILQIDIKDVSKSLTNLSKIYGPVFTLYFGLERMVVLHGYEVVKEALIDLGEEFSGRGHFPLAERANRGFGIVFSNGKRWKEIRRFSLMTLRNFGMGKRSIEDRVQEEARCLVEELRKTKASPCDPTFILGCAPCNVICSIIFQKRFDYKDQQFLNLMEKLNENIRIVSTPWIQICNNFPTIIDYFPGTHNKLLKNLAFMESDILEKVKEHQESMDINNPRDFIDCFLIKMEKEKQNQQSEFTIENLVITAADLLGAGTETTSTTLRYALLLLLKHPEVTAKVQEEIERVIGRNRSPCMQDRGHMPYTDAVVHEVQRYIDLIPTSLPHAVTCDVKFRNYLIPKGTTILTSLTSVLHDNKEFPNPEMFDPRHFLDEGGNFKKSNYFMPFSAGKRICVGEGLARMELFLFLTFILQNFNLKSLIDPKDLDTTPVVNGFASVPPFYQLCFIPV
# Chain of Cytochrome P450 2D6 (P10635 whole entry): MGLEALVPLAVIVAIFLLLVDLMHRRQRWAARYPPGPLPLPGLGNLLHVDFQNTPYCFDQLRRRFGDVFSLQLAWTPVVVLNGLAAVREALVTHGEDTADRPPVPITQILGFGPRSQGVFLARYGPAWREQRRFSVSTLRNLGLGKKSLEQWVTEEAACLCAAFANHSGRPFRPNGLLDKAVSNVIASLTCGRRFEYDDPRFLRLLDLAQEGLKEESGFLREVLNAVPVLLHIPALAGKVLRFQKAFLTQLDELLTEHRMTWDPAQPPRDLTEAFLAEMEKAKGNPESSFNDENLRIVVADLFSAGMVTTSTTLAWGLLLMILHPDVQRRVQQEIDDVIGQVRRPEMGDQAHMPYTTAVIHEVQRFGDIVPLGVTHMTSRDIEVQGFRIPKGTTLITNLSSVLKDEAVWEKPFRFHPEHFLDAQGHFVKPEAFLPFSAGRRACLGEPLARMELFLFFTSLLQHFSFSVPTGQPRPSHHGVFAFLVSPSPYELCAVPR
Compound,Kd [1] [µM],IC50 [2] [µM],IC50 [3] [µM],further results
Cc1c(C(=O)O)cccc1-c1cnc(N)c(N[C@H](C)c2ccccc2)n1,> 100,35,,
C[C@@H](Nc1nc(-c2cccc(C(=O)O)c2)cnc1N)C1CCCCC1,7,3,,
Cc1cc(C(=O)O)cc(-c2cnc(N)c(N[C@H](C)c3ccccc3)n2)c1,7,4,7,
Nc1ncc(-c2cccc(C(=O)O)c2)nc1NCC1CCCC1,18,19,,
C[C@@H](Nc1nc(-c2cccc(C(=O)O)c2)cnc1N)c1ccc(Cl)cc1,5,2,5,
C[C@@H](Nc1nc(-c2ccccc2C(=O)O)cnc1N)c1ccccc1,> 100,> 100,> 100,
COc1ccc(C(=O)O)cc1-c1cnc(N)c(N[C@H](C)c2ccccc2)n1,3,2,7,
C[C@@H](Nc1nc(-c2ccc(C(=O)O)c(O)c2)cnc1N)c1ccccc1,,10,,
C[C@@H](Nc1nc(-c2cc(C(=O)O)ccc2Cl)cnc1N)c1ccccc1,5,2,8,
C[C@@H](Nc1nc(-c2csc(C(=O)O)c2)cnc1N)c1ccccc1,33,50,> 100,
Cc1ccc(-c2cnc(N)c(N[C@H](C)c3ccccc3)n2)cc1C(=O)O,29,15,,
C[C@@H](Nc1nc(-n2cc(C(=O)O)cn2)cnc1N)c1ccccc1,,15,15,
Cc1ccc(C(=O)O)cc1-c1cnc(N)c(N[C@H](C)c2ccccc2)n1,3,2,6,
Nc1ncc(-c2cccc(C(=O)O)c2)nc1NCc1ccccc1,22,12,,
Cc1ccc(C(=O)O)cc1-c1cnc(N)c(N[C@H](C)c2ccc(Cl)cc2)n1,,0.5,,"Activity [4]: Non-toxic; bioavailability [5]: 41%; half-life [6]: 2.8 h; AUC(0-inf) [7]: 0.55 µM·h; Cmax [8]: 2100 nM; Vd [9]: 1.4 L/kg; clearance [10]: 60 mL/min/kg; inhibition (INH) (Cytochrome P450 2C19): Not Active; inhibition (INH) (Cytochrome P450 1A2): Not Active; inhibition (INH) (Cytochrome P450 2D6): Not Active; inhibition (INH) (Cytochrome P450 2C9): Not Active; solubility kinetic [11]: 81 µM; inhibition (INH) (Cytochrome P450 3A4): Not Active; Papp B→A [12]: 10.3 ×10⁻⁶ cm/s; fraction unbound at 4 h, 5 µM [13]: 0.01; Papp A→B [14]: 12.1 ×10⁻⁶ cm/s; fraction unbound at 4 h, 5 µM [15]: < 0.01"
COCCNc1nc(-c2cccc(C(=O)O)c2)cnc1N,> 100,> 100,,
CC(C)c1ccc(C(=O)O)cc1-c1cnc(N)c(N[C@H](C)c2ccccc2)n1,5,2,7,
C[C@@H](Nc1nc(-c2ccnc(C(=O)O)c2)cnc1N)c1ccccc1,32,24,,

# Further lines, with some results ahead:
Kd [1] [µM],IC50 [2] [µM],IC50 [3] [µM],Compound,further results
,14,,C[C@@H](Nc1nc(-c2ccc(C(=O)O)cc2)cnc1N)c1ccccc1,
> 100,91,> 100,Cc1nc(N)c(N[C@H](C)c2ccccc2)nc1-c1cccc(C(=O)O)c1,
29,18,,C[C@@H](Nc1cc(-c2cccc(C(=O)O)c2)cnc1N)c1ccccc1,
> 100,25,,C[C@@H](Nc1cncc(-c2cccc(C(=O)O)c2)n1)c1ccccc1,
> 100,> 100,,C[C@@H](Nc1nc(-c2cccc(C(=O)O)c2)ccc1N)c1ccccc1,
> 100,> 100,,C[C@@H](Nc1nc(-c2cccc(C(N)=O)c2)cnc1N)c1ccccc1,
,> 100,> 100,CC(=O)Nc1ncc(-c2cccc(C(=O)O)c2)nc1N[C@H](C)c1ccccc1,
> 100,> 100,,C[C@H](Nc1nc(-c2cccc(C(=O)O)c2)cnc1N)c1ccccc1,
,71,> 100,C[C@@H](Nc1nc(-c2cccc(C(=O)O)c2)cnc1NS(C)(=O)=O)c1ccccc1,
7,4,,C[C@@H](Nc1nc(-c2cccc(C(=O)O)c2)cnc1N)c1ccccc1,"inhibition (INH) (Cytochrome P450 2C19): Not Active; inhibition (INH) (Cytochrome P450 1A2): Not Active; inhibition (INH) (Cytochrome P450 2D6): Not Active; inhibition (INH) (Cytochrome P450 2C9): Not Active; solubility kinetic [11]: 137 µM; inhibition (INH) (Cytochrome P450 3A4): Not Active; Papp B→A [12]: 4 ×10⁻⁶ cm/s; fraction unbound at 4 h, 5 µM [13]: 0.04; Papp A→B [14]: 9.6 ×10⁻⁶ cm/s; fraction unbound at 4 h, 5 µM [15]: 0.01; Kd [16]: 857 µM"
> 100,> 100,> 100,C[C@@H](Nc1nc(-c2cccc(C(=O)O)c2)cnc1O)c1ccccc1,
> 100,> 100,> 100,C[C@@H](Nc1nc(-c2cccc(C(=O)NS(C)(=O)=O)c2)cnc1N)c1ccccc1,
> 100,> 100,> 100,C[C@@H](Oc1nc(-c2cccc(C(=O)O)c2)cnc1N)c1ccccc1,
> 100,> 100,,CCOC(=O)c1cccc(-c2cnc(N)c(N[C@H](C)c3ccccc3)n2)c1,
> 100,73,> 100,CNc1ncc(-c2cccc(C(=O)O)c2)nc1N[C@H](C)c1ccccc1,
> 100,> 100,,C[C@H](c1ccccc1)N(C)c1nc(-c2cccc(C(=O)O)c2)cnc1N,
